Experimental data published in patent US7238723B2, “Indole derivatives” (Pfizer Inc., priority 2003, dated 2007).
Structures can show the parent of a compound that is named as a salt.

Tests used:
[1] = Moisture sorption by Dynamic Vapour Sorption (DVS); format: physicochemical; settings: 30° C.
Experimental: The moisture sorption of eletriptan hydrobromide monohydrate was determined using a Dynamic Vapour Sorption (DVS) Automated Sorption Analyser Model DVS-1 instrument manufactured by Surface Measurements Systems Ltd., UK.
Approximately 25 mg of eletriptan hydrobromide monohydrate was accurately weighed into a sample pan. This was exposed to humidities in the range of from 0 to 90% RH. The analysis was carried out in detail in the range of from 0 to 15% RH, using 15% RH steps in the range of from 15 to 90% RH. The analysis temperature was 30° C. with a nitrogen flow rate of 200 cm^3min^−1.
Once the monohydrate has formed there is very little additional moisture sorbed and within the range 10 to 90% RH less than 0.3% w/w of water is sorbed.

[2] = Storage stability of the drug substance, HPLC analysis; format: physicochemical; settings: double polyethylene bags inside a fibreboard drum
Experimental: • 1) Eletriptan hydrobromide monohydrate was stored in double polyethylene bags inside a fibreboard drum under the following conditions: • 25° C./60% RH for 9 months • 30° C./60% RH for 9 months • 40° C./75% RH for 6 months • (RH=relative humidity)

[3] = on further processing; cited from earlier work
[4] = 4 weeks at 40° C. and 90% relative humidity; cited from earlier work

| Structure (SMILES) | hygroscopicity ([1]; 0 to 90% RH) | hydrate state ([1]; above 6% RH) | water lost (water of the monohydrate) ([1]; at 0% RH) | water sorbed ([1]; within the range 10 to 90% RH) | degradation on storage (HPLC) ([2]; 25° C./60% RH for 9 months) | degradation on storage (HPLC) ([2]; 30° C./60% RH for 9 months) | degradation on storage (HPLC) ([2]; 40° C./75% RH for 6 months) | stability of the solid form [3] | water absorbed on standing [4] |
| --- | --- | --- | --- | --- | --- | --- | --- | --- | --- |
| CN1CCC[C@@H]1Cc1c[nH]c2ccc(CCS(=O)(=O)c3ccccc3)cc12 [eletriptan hydrobromide monohydrate] | essentially non-hygroscopic | remains as a monohydrate | 3.8 % w/w | less than 0.3 % w/w | no degradation had occurred | no degradation had occurred | no degradation had occurred |  |  |
| Br.CN1CCC[C@@H]1Cc1c[nH]c2ccc(CCS(=O)(=O)c3ccccc3)cc12 [anhydrous eletriptan hydrobromide] |  |  |  |  |  |  |  | unstable and to undergo polymorphic conversion to the alpha-form | ≤ 1.23 % by weight |
